Data reported in US20260000698A1 (priority 2022, published 2026).
Marks after values point to notes of the source that are not given here.

Experiments:
[1] = Solubility as observed in antiviral testing
[2] = system: SARS-CoV-2 isolate USA-WA1/2020; assay: microbe, parasite or virus in culture; settings: Severe acute respiratory syndrome coronavirus 2, A549-ACE2, 48 h
[3] = system: SARS-CoV-2 isolate USA-WA1/2020
A549/ACE2/TMPRSS2 cells = assay: in vitro; settings: A549/ACE2/TMPRSS2 cells
Experimental: Percentage of infected cells was determined by dividing the number of infected cells by the total number of cells per well. The percentage of infected cells and total number of cells for each treatment was plotted into GraphPad prism (GraphPad Software; San Diego, CA, USA) to perform a non-linear regression analysis, generate infectious dose-response curves and to calculate EC50 and CC50 values.
Viability assays for the non-infected A549/ACE2/TMPRSS2 cells were performed using the 3-(4,5-dimethylthiazol-2-yl)-5-(3-carboxymethoxyphenyl)-2-(4-sulfophenyl)-2H-tetrazolium (MTS)-based tetrazolium reduction CellTiter 96 Aqueous Non-Radioactive cell proliferation assay (Promega G5430; Madison, WI) as described. Assays were conducted using parallel plates to those used in the immunofluorescence assay. Experimental details (cell line, number of cells seeded and incubation time) corresponded to those used in the immunofluorescence assay above. The data obtained were used to calculate the CC50 value using GraphPad Prism software.

[4] = Liver S9 stability assay, mouse liver S9; settings: n = 2, mean±SD
[5] = Liver S9 stability assay, human liver S9; settings: n = 2, mean±SD
[6] = Plasma stability assay, human plasma; format: in vitro ADME
Experimental: (§1) Plasma stability assay. The plasma stability assay was performed in triplicate by incubating each selected compound (1 μmol/L final concentration) in normal mouse (CD-1) or human plasma (Innovative Research; Novi, MI, USA) diluted to 80% with 0.1 mol/L potassium phosphate buffer (pH 7.4) at 37° C. At 0, 1, 3, 6, and 24 h, a 50 μL aliquot of the plasma mixture was taken and quenched with 150 μL of acetonitrile containing 0.1% formic acid. The samples were then vortexed and centrifuged at 15,000 rpm (Eppendorf centrifuge 5424R; Enfield, CT, USA) for 5 min. The supernatants were collected and analyzed by LC-MS/MS to determine the in vitro plasma half-life (t1/2).

SARS-CoV-2 Nsp14 MTase = SARS-CoV-2 Nsp14 MTase (Severe acute respiratory syndrome coronavirus 2, UniProt P0DTD1); assay: biochemical; format: biochemical
[7] = not given; remark: listed apart in the source
[8] = Plasma stability assay, mouse plasma; format: in vitro ADME, mouse (CD-1)
Experimental: as §1

[9] = Parallel artificial membrane permeability assay (PAMPA); format: in vitro ADME
Experimental: Parallel artificial membrane permeability assay (PAMPA).^5 The membrane permeability of selected compounds was evaluated using the Corning® BioCoat™ Pre-coated PAMPA Plate System (Corning 353015; Glendale, AZ, USA). The pre-coated plate assembly, which was stored at −20° C., was taken to thaw for 30 min at room temperature. The permeability assay was carried out in accordance with the manufacturer's protocol. Briefly, the 96-well filter plate, pre-coated with lipids, was used as the permeation acceptor and a matching 96 well receiver plate was used as the permeation donor. Compound solutions were prepared by diluting the 10 mmol/L DMSO stock solutions with 10% methanol in DPBS to a final concentration of […]. The compound solutions were added to the wells (300 μL/well) of the receiver plate and DPBS with 10% methanol was added to the wells (200 μL/well) of the pre-coated filter plate. The filter plate was then coupled with the receiver plate and the plate assembly was incubated at 25° C. without agitation for 5 h. At the end of the incubation, the plate was separated and the final concentrations of compounds in both donor wells and acceptor wells were analyzed using LC-MS/MS. Permeability of a compound was calculated using the Eq. (1):
where A=filter area (0.3 cm^2), VD=donor well volume (0.3 mL), VA=acceptor well volume (0.2 mL), t=incubation time (seconds), CA(t)=compound concentration in acceptor well at time t, CD(t)=compound concentration in donor well at time t, and Ceq was calculated using the Eq. (2): […]
A cutoff criterion of Pe value at […] was used to classify the compounds into high and low permeability according to the literature report of this PAMPA plate system^1.

| SMILES | solubility [1] | EC50 [2] | antiviral activity ([3]; A549 AT cells) | CC50 (A549/ACE2/TMPRSS2 cells) | Mouse Liver S9 Stability t1/2, Phase I ([4]; cofactor NADPH) | Mouse Liver S9 Stability t1/2, Phase II ([4]; cofactor UDPGA) | Human Liver S9 Stability t1/2, Phase I ([5]; cofactor NADPH) | Human Liver S9 Stability t1/2, Phase II ([5]; cofactor UDPGA) | Plasma Stability t1/2, Human ([6]; human plasma, 37° C., n = 3) | stability in human plasma ([6]; human, plasma) | stability in human liver S9 fractions | MTase inhibitory activity (SARS-CoV-2 Nsp14 MTase) | IC50 (SARS-CoV-2 Nsp14 MTase; LC-MS/MS detection of SAH, read-out: MTase IC50) | therapeutic index (TI=CC50/EC50) ([3]; CC50/EC50) | stability in mouse S9 phase I reactions [7] | Plasma Stability t1/2, Mouse ([8]; mouse plasma, 37° C., n = 3) | stability in mouse plasma ([8]; mouse, plasma) | passive diffusion rate in PAMPA ([9]; PAMPA) | PAMPA Permeability Pe ([9]; n = 6, mean±SD, 25° C., 5 h) |
| --- | --- | --- | --- | --- | --- | --- | --- | --- | --- | --- | --- | --- | --- | --- | --- | --- | --- | --- | --- |
| CC(C)C(=O)O[C@@H]1[C@H](OC(=O)C(C)C)[C@@H](CNS(=O)(=O)c2ccc3ccccc3c2)O[C@H]1n1cnc2c(N)ncnc21 [Compound 7, (2R,3R,4R,5R)-2-(6-Amino-9H-purin-9-yl)-5-((naphthalene-2-sulfonamido)methyl)tetrahydrofuran-3,4-diyl bis(2-methylpropanoate)] | low solubility | ~97 µM | showed antiviral activity | > 100 µM | – | – | – | – | – | – | – | – | – | – | – | – | – | – | – |
| Nc1ncnn2c([C@@H]3O[C@H](CNS(=O)(=O)c4ccc5ccccc5c4)[C@@H](O)[C@H]3O)ccc12 [Compound 10, N-(((2R,3S,4R,5S)-5-(4-Aminopyrrolo[2,1-f][1,2,4]triazin-7-yl)-3,4-dihydroxytetrahydrofuran-2-yl)methyl)naphthalene-2-sulfonamide] | – | 0.72 µM | – | > 100 µM | 0.482 ± 0.005 h | >45^e min | 14 ± 3.5 h | >45^e min | >24^d h | similarly stable | similarly stable | comparable to that of 3 | 0.093 µM | greater than 139 | surprisingly labile | >24^d h | similarly stable | equally low | 0.2 ± 0.1 10^−6 cm/s |
